Reference: US12226610B2, “Treatment of pain associated with total knee arthroplasty with sustained-release liposomal anesthetic compositions” (Pacira Pharmaceuticals, Inc., priority 2022, dated 2025)
Counter-ions that a name gives are not always drawn.

What was measured:
[1] = test system: subjects undergoing primary unilateral TKA; experiment: Safety assessments (TEAEs, SAEs, vital signs, EKG); design: species or system human; details: in vivo
Excerpt: Safety assessments included monitoring of AEs (including SAEs and adverse events of special interest [AESIs]), vital signs (temperature, resting heart rate, respiratory rate, oxygen saturation, and blood pressure), 12 lead EKG, and recording of concomitant medications.
Safety endpoints included incidence of treatment emergent adverse events and SAEs from start of the nerve block procedure through POD14; change from baseline in vital signs over time; and abnormal post-baseline EKG findings.
Adverse events and SAEs were recorded from the time of informed consent through POD14. Adverse events were coded using the Medical Dictionary for Regulatory Activities version 24.1 and summary tables were based on the Safety Analysis Set. A subject data listing was provided for all AEs, which included the reported term, preferred term, system organ class, treatment-emergent adverse event flag, study day of AE onset, AE start/stop date and time, relationship to study drug, frequency, severity, action taken with subject, outcome, and seriousness criteria.
Vital signs and their change from baseline were summarized with mean, median, and standard deviation at baseline and at each scheduled time point. The frequency and percentage of EKG findings (normal, abnormal/not clinically significant, and abnormal/clinically significant) were summarized at screening and each scheduled time point.
An AE can be defined as any untoward medical occurrence associated with the use of a drug in humans, whether or not considered drug related. An AE (also referred to as an adverse experience) could be any unfavorable and unintended sign (e.g., abnormal laboratory finding), symptom, or disease temporally associated with the use of a drug, without any judgment about causality. An AE could arise from any use of the drug (e.g., off-label use in combination with another drug) and from any route of administration, formulation, or dose, including an overdose.
An AE that occurred after administration of the study treatment was considered a treatment-emergent adverse event (TEAE). A continuous AE with varying grades of severity was to be recorded as 1 AE. The highest grade of severity experienced by that subject during the course of the continuous AE was to be recorded.
Assessment of the relationship of the AE to study drug after careful medical consideration on a case-by-case basis. […]

[2] = test system: sensory block and motor block; experiment: Pharmacodynamic assessment of sensory and motor block (Cohort 1); format: in vivo, human
Protocol: (§1) This was a Phase 3, multicenter, randomized, double blind, active controlled study of 167 subjects undergoing primary unilateral TKA under spinal anesthesia. The study consisted of 2 cohorts that were enrolled in parallel. Cohort 1 enrolled 46 subjects to obtain information on the PK profile, pharmacodynamics (PD), efficacy, and safety. Cohort 2 enrolled 121 subjects to obtain information on efficacy and safety. An adaptive study design was used in this study, with an interim analysis conducted by an unblinded independent review committee to evaluate sample size assumptions and futility.
(§2) On the day of surgery, prior to surgery, subjects in Cohort 1 and Cohort 2 were randomized (1:1) to receive an adductor canal block with a single dose of either 10 mL EXPAREL (133 mg) admixed with 10 mL 0.5% bupivacaine HCl (50 mg; from hereon referred to as the EXP133-ADMIX arm) or 10 mL 0.5% bupivacaine HCl (50 mg) mixed with 10 mL normal saline (from hereon referred to as the BUP50 arm). The total dose volume was consistent (20 mL) for all subjects.
(§3) Efficacy assessments included pain intensity scores focused on the operative knee using the Numeric Rating Scale (NRS), total postsurgical opioid consumption in OMED, time to first opioid consumption post-surgery, and subject satisfaction using the International Pain Outcome (IPO). Additionally, blood samples for PK analysis (area under the curve [AUC], maximum plasma concentration [Cmax], time of maximum plasma concentration [Tmax], including early and late Cmax and Tmax (EXP133-ADMIX arm only), apparent terminal elimination half-life [t½e1], apparent clearance [CL/F], and apparent volume of distribution [Vd/F]) and PD assessment data (sensory and motor block) were collected from Cohort 1 subjects.
Pharmacodynamic endpoints included: duration of the sensory block and motor block; time to onset of sensory block and motor block; and time to offset of sensory block and motor block.

[3] = test system: subjects undergoing primary unilateral TKA; experiment: Time to first opioid consumption (rescue medication) post-surgery; format: in vivo, human
Protocol: as §1, with “futility. […]” for “futility.”
(§4) An unscheduled pain intensity assessment using the NRS (measured as “On a scale from 0 to 10, where 0 equals no pain and 10 equals the worst possible pain, how much pain are you experiencing in your operative knee right now?”) was to be completed immediately prior to administration of any breakthrough pain medication up to 96 hours post-surgery. Medications were administered as needed; opioids were not to be given on a pre-determined schedule. […]
(§5) Total postsurgical opioid consumption in OMED from 0 to 96 hours was analyzed using an ANCOVA model. Time to first postsurgical opioid medication was analyzed using the Kaplan Meier survival method. […]

[4] = test system: subjects undergoing primary unilateral TKA; experiment: Total postsurgical opioid consumption (OMED) and opioid-free status; format: in vivo, human; details: any time interval up to 96 hours post-surgery
Protocol: as §1, with “futility. […]” for “futility.”
as §4, §5

[5] = Plasma bupivacaine pharmacokinetics (Cohort 1); format: in vivo, human
Protocol: as §1, §2, §3
Pharmacokinetic endpoints included area under the plasma concentration-versus-time curve, specifically from the time of dosing to the time of the last quantifiable concentration (AUC0-last) and AUC from the time of dosing to infinity (AUC0-∞); maximum plasma concentration (Cmax) and time of maximum plasma concentration (Tmax) for subjects treated with bupivacaine HCl; early and late Cmax and Tmax were determined for subjects treated with EXPAREL admixed with bupivacaine HCl (EXP133-ADMIX arm); t½e1; CL/F; Vd/F.

## CCCCN1CCCCC1C(=O)Nc1c(C)cccc1C (stereo not drawn) [BUP50, bupivacaine HCl]
[1]; human
  subjects with clinically significant abnormal EKG findings: 1 subjects
  subjects with ≥1 TEAE: 88.8%
  subjects with ≥1 TEAE related to study drug: 2 subjects
[1]
  subjects discontinued from the study following SAEs: One
[2]; 8 hours post dose (first time point with majority)
  subjects in whom knee extension was not present: 71.4%
[2]; in vivo
  median duration of sensory block: 11.63 h
[2]; post-dose
  time by which all subjects regained normal sensory function: ≤ 24 h
[3]
  median time to first rescue medication: 3.63 h
[4]
  subjects opioid free: No subjects
[5]; human, in vivo
  AUC(0-inf): 7450 ng·h/mL
  AUC(0-t): 7280 ng·h/mL
  concentration at 60 h: 43.2 ng/mL
  median time of Cmax: 0.65 h
[5]; in vivo
  shape of mean bupivacaine concentration over time: a single peak
[5]; plasma bupivacaine
  Cmax: 333.89 ng/mL
